Assay results taken from PubChem BioAssay AID2842 (Southern Research Institute, 2010).
In brackets after ≈: the same amount, converted by molar mass.

The compounds below were run on M. tuberculosis H37Rv growth inhibition (assay: Mycobacterium tuberculosis H37Rv growth inhibition, putative kinase inhibitor library, confirmatory dose response (AID 2842);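 also: bacteria incubated one week before Alamar blue readout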).

Compound	IC90 [µg/mL]
Cc1cc(C)c2nc(N(CCCn3ccnc3)C(=O)c3cccs3)sc2c1	1.45 (≈ 3.66 µM)
COc1cc(C(=O)Nc2nnc(-c3cc(Cl)ccc3Cl)o2)cc(OC)c1OC	28.3 (≈ 66.7 µM)
O=C(Nc1nnc(-c2ccc(Cl)s2)o1)C1CC1	26.8 (≈ 99.3 µM)
COc1ccccc1Nc1nc(NCc2ccco2)c2ccccc2n1	5.62 (≈ 16.2 µM)
O=C(Nc1nc2c(s1)CCCC2)c1ccc(Cc2ccccc2)cc1	7.01 (≈ 20.1 µM)
Cc1ccc(Cl)cc1N1CCN(CCn2c(C)c(C)n3c4c(=O)[nH]c(=O)n(C)c4nc23)CC1	49.7 (≈ 106 µM)
O=C(Nc1nnc(-c2ccc(Cl)cc2)o1)c1cc2ccccc2oc1=O	18.2 (≈ 49.4 µM)
Cc1cccc2sc(NNC(=O)c3nc4ccccc4s3)nc12	3.36 (≈ 9.87 µM)
CCS(=O)(=O)c1ccc(C(=O)Nc2nnc(-c3ccc(Br)cc3)o2)cc1	24.6 (≈ 56.4 µM)
OC(CNCc1ccco1)Cn1c2ccc(Cl)cc2c2cc(Cl)ccc21 (stereo not given)	1.71 (≈ 4.39 µM)
COc1cccc(Nc2cc(C)nc3c(-c4ccccc4)cnn23)c1	1.83 (≈ 5.54 µM)
COc1ccc(-c2nc(N3CCCCC3)nc3n[nH]c(N)c23)cc1	12.9 (≈ 39.8 µM)
Cc1ccc(-n2nnc3c(SCC(=O)N4CCOCC4)ncnc32)cc1	12.3 (≈ 33.3 µM)
CC(=O)c1ccc(C(=O)Nc2nnc(-c3ccc(Cl)cc3)o2)cc1	1.8 (≈ 5.27 µM)
COc1ccc(-c2nnc(NC(=O)c3ccccc3C)o2)cc1	9.97 (≈ 32.2 µM)
COc1cccc(-c2csc(NC(=O)C3CCCCC3)n2)c1	19.8 (≈ 62.6 µM)
O=C(/C=C/c1cccs1)Nc1nnc(-c2ccco2)o1	5.99 (≈ 20.8 µM)
O=C(Nc1nnc(C2=COCCO2)o1)c1cccc(Cl)c1	3.49 (≈ 11.3 µM)
O=C(Nc1nccs1)c1ccc2c(c1)CCCC2	3.85 (≈ 14.9 µM)
COc1ccccc1-c1nnc(Nc2nc3c(F)cccc3s2)o1	3.16 (≈ 9.23 µM)
O=C(Nc1nnc(-c2cc(Cl)ccc2Cl)o1)c1ccc(S(=O)(=O)N2CCOCC2)cc1	3.86 (≈ 7.99 µM)
COc1cc(C2C3=C(CC(C)(C)CC3=O)Nc3ncnn32)ccc1OCc1ccc(Cl)c(Cl)c1 (stereo not given)	6.77 (≈ 13.6 µM)
CC1CCN(S(=O)(=O)c2ccc(C(=O)NNc3nc4c(Cl)cccc4s3)cc2)CC1	24.7 (≈ 53.1 µM)

Compound	IC90 [µg/mL]
Cc1cc(C)c2sc(N3CCCC3)nc2c1	1.75 (≈ 7.53 µM)
O=C(Nc1nnc(-c2ccc(Cl)cc2)o1)c1ccc(Br)cc1	3.26 (≈ 8.61 µM)
COc1ccc(-c2nnc3c4cc5c(cc4n(Cc4ccc(C)cc4)cc2-3)OCCO5)cc1	5.09 (≈ 11.6 µM)
O=C(c1ccc(NC2=C(Cl)C(=O)N(Cc3ccccc3)C2=O)cc1)N1CCCCCC1	11.2 (≈ 25.5 µM)
O=C(Cc1ccccc1)N(CCCn1ccnc1)c1nc2c(F)cccc2s1	7.4 (≈ 18.8 µM)
Cc1ccc(C2=NC(C)(C)N=C2SCC(=O)Nc2ccc(C)c(C)c2)cc1	23.5 (≈ 61.9 µM)
O=C(Nc1nnc(-c2ccc(F)cc2)o1)c1ccc(Cl)cc1	18.3 (≈ 57.5 µM)
COc1cccc(-c2nnc(NC(=O)/C=C/c3cccs3)o2)c1	3.55 (≈ 10.8 µM)
Cc1ccc(C)c(-c2nnc(NC(=O)c3ccc([N+](=O)[O-])cc3)o2)c1	78.5 (≈ 232 µM)
COc1cccc2sc(Nc3nc(-c4ccc(Cl)s4)cs3)nc12	7.28 (≈ 19.2 µM)
Cc1c(CCC#N)c(=O)n2c([nH]c3ccccc32)c1C#N	2.29 (≈ 8.29 µM)
Cc1ccc(C)c(-c2nnc(NC(=O)C3=COCCO3)o2)c1	< 0.2
Cc1nnc2ccc(-c3cccc(NC(=O)COc4ccc(Cl)cc4)c3)nn12	23.5 (≈ 59.6 µM)
COc1cc(C(=O)Nc2nnc(-c3ccc4c(c3)CCCC4)o2)cc(OC)c1OC	44.2 (≈ 108 µM)
CS(=O)(=O)NNc1ccc([N+](=O)[O-])cc1[N+](=O)[O-]	11.6 (≈ 41.9 µM)
O=C(Nc1nnc(-c2ccc(Cl)cc2)o1)c1cccc(C(F)(F)F)c1	2.99 (≈ 8.13 µM)
Cc1ccc2nc(N(CCCn3ccnc3)C(=O)c3cccs3)sc2c1	1.73 (≈ 4.52 µM)
O=C(Nc1nnc(-c2ccc(Cl)s2)o1)c1cccc([N+](=O)[O-])c1	6.09 (≈ 17.4 µM)
O=C(/C=C/c1cccs1)N(CCCn1ccnc1)c1nc2ccccc2s1	1.43 (≈ 3.62 µM)
CC1(C)COCN1S(=O)(=O)c1ccc(C(=O)Nc2nnc(-c3ccc(F)cc3)o2)cc1	23.3 (≈ 52.1 µM)
CC(=O)c1cccc(Nc2nc(Nc3ccc(F)c(Cl)c3)nc(N3CCOCC3)n2)c1	8.38 (≈ 18.9 µM)
COc1ccc(CC(=O)N2CCN=C2SCc2ccc(C(F)(F)F)cc2)cc1	23.9 (≈ 58.4 µM)
C(=N\n1cnnc1)/c1ccc(-n2nc(-c3ccccc3)cc2-c2ccccc2)cc1	15.1 (≈ 38.7 µM)

Compound	IC90 [µg/mL]
Cc1ccc(C)c(-c2nnc(NC(=O)c3ccc4ccccc4c3)o2)c1	18.8 (≈ 54.7 µM)
CC(C)(C)c1ccc(C(=O)Nc2nnc(-c3ccncc3)o2)cc1	1.18 (≈ 3.66 µM)
Cc1ccc(C(=O)Nc2nnc(-c3cc(C)ccc3C)o2)cc1	41.5 (≈ 135 µM)
O=C(Nc1nnc(-c2ccncc2)o1)c1cccc(C(F)(F)F)c1	28.1 (≈ 84.2 µM)
CSc1ccccc1-c1nnc(NC(=O)c2cc(Cl)sc2Cl)o1	11.7 (≈ 30.2 µM)
COC(=O)c1c(NC(=O)C(c2ccccc2)c2ccccc2)sc2c1CC(C)(C)NC2(C)C	6.07 (≈ 13.1 µM)
COc1ccc(C(=O)Nc2nc3c(s2)CCCC3)cc1OC	22.8 (≈ 71.7 µM)
COc1cc(-c2nnc(NC(=O)C3CCCCC3)o2)cc(OC)c1OC	18.4 (≈ 50.8 µM)
CC(C)(C)c1ccc(-n2c(=O)[nH]c3c(C(N)=O)nc(CCc4ccccc4)nc32)cc1	2.36 (≈ 5.68 µM)
COC(=O)c1c(NC(=O)c2ccccc2I)sc2c1CC(C)(C)NC2(C)C	13.2 (≈ 26.6 µM)
OCc1cn(-c2ccccc2)nc1-c1ccc(F)cc1	6.38 (≈ 23.8 µM)
COc1ccccc1N1CCN(c2nc(Nc3ccc(C)c(C)c3)c3nccnc3n2)CC1	1.68 (≈ 3.8 µM)
Cc1cccc2sc(NNC(=O)c3ccc(N(C)C)cc3)nc12	28.6 (≈ 87.6 µM)
CC(C)CCn1c(N2CCN(Cc3cccc(Cl)c3)CC2)nc2c1c(=O)[nH]c(=O)n2C	14.1 (≈ 31.8 µM)
Cc1ccc2nc(NNC(=O)c3nc4ccccc4s3)sc2c1	6.73 (≈ 19.8 µM)
Cc1ccc(C2C=C(c3ccc(Cl)cc3)Nc3ncnn32)cc1 (stereo not given)	6.94 (≈ 21.5 µM)
O=C(NCC(c1cccs1)N1CCc2ccccc2C1)c1ccc2c(c1)OCO2 (stereo not given)	23.9 (≈ 58.7 µM)
COC(=O)c1c(NC(=O)Cc2cccc3ccccc23)sc2c1CC(C)(C)NC2(C)C	3.73 (≈ 8.54 µM)
COc1cc(OC)cc(C(=O)N(CCCn2ccnc2)c2nc3c(C)cc(C)cc3s2)c1	10.1 (≈ 22.3 µM)
CCCCCOc1ccc(C(=O)Nc2nnc(-c3ccccn3)o2)cc1	2.15 (≈ 6.1 µM)
CC(=O)N1CCc2c(sc(NC(=O)c3ccc(N(C)C)cc3)c2C(N)=O)C1	8.5 (≈ 22 µM)
Cc1cc(NC(=O)NCCCSc2nc3ccccc3o2)no1	29.1 (≈ 87.5 µM)
COc1ccc(Nc2c3c4c(cccc4[nH]c2=O)C(=O)c2ccccc2-3)cc1	12.4 (≈ 33.7 µM)

Compound	IC90 [µg/mL]
O=C(Cc1ccccc1)Nc1nnc(-c2ccc(Cl)cc2)o1	14.1 (≈ 44.9 µM)
Cc1cccc2nc(NC(=O)c3ccc(Oc4ccccc4)cc3)sc12	8.53 (≈ 23.7 µM)
O=C(Nc1nnc(-c2ccc3c(c2)CCCC3)o1)c1ccc(F)cc1	21.6 (≈ 64 µM)
CCN(CC)S(=O)(=O)c1ccc(C(=O)Nc2sccc2C(=O)NC(=O)OC)cc1	< 0.2
CCN(CC)S(=O)(=O)c1ccc(C(=O)Nc2nnc(-c3cc(Cl)ccc3Cl)o2)cc1	7.57 (≈ 16.1 µM)
O=C(Nc1nc(-c2nc3ccccc3s2)cs1)C1COc2ccccc2O1 (stereo not given)	26.8 (≈ 67.8 µM)
COc1ccc2nc(NNC(=O)c3cc4ccccc4oc3=O)sc2c1	30.8 (≈ 83.8 µM)
CCOc1ccc(-c2[nH]ncc2-c2ccc(Cl)cc2)c(O)c1	7.06 (≈ 22.4 µM)
Cc1ccc(-c2nnc(NC(=O)c3c(F)cccc3F)o2)c(C)c1	1.25 (≈ 3.8 µM)
CCOc1cccc2sc(NC(=O)c3ccc(Cl)cc3Cl)nc12	11.6 (≈ 31.5 µM)
CCc1cccc2sc(N(CCCn3ccnc3)C(=O)c3cc(OC)cc(OC)c3)nc12	10.7 (≈ 23.7 µM)
O=C(Nc1nnc(-c2cccnc2)o1)c1cc(Cl)ccc1Cl	27.9 (≈ 83.1 µM)
CCOC(=O)N1CCc2c(sc(NC(C)=O)c2C(=O)OC)C1	14 (≈ 43 µM)
COc1ccc(C)c2sc(N3CCc4ccccc4C3)nc12	11.1 (≈ 35.6 µM)
Cc1ccccc1C(=O)Nc1nnc(-c2ccco2)o1	1.69 (≈ 6.28 µM)
O=C(Nc1nnc(-c2ccco2)o1)C1=COCCO1	50.9 (≈ 193 µM)
O=C(c1ccco1)N(CCCn1ccnc1)c1nc2ccc(Br)cc2s1	0.74 (≈ 1.72 µM)
CCOc1ccc2c(c1)c1nnc(-c3ccc(OC)cc3)c-1cn2Cc1cccc(C)c1	20.7 (≈ 48.9 µM)
COc1ccc2nc(Nc3nc4c(F)cccc4s3)sc2c1	23.4 (≈ 70.8 µM)
C=CCN(CC=C)S(=O)(=O)c1ccc(C(=O)Nc2nnc(-c3cc(Cl)ccc3Cl)o2)cc1	12.8 (≈ 25.9 µM)
Cc1ccc(C(=O)Nc2nnc(-c3ccc(C)cc3C)o2)c(C)c1	3.99 (≈ 12.4 µM)
COC(=O)c1ccc(NC(=O)CSc2nc(-c3ccccc3C)ns2)cc1	0.79 (≈ 1.98 µM)
CS(=O)(=O)Nc1cccc(C2=NN(c3nc(-c4ccccc4)c4cc(Cl)ccc4n3)C(c3ccccc3F)C2)c1 (stereo not given)	6.67 (≈ 11.7 µM)

Compound	IC90 [µg/mL]
Cc1ccc(C)c(-c2nnc(NC(=O)c3ccc(OC(C)C)cc3)o2)c1	33.4 (≈ 95 µM)
O=c1[nH]c(CSc2ccccc2)nc2ccccc12	7.54 (≈ 28.1 µM)
Cc1ccc(-c2nnc(NC(=O)c3ccccc3Cl)o2)c(C)c1	< 0.2
OCc1nc2ccccc2n1CCCCOc1ccc(Cl)cc1	7.39 (≈ 22.3 µM)
CC1=C(C(=O)Nc2cccc(Cl)c2)C(c2ccc(Br)cc2)NC(=O)N1 (stereo not given)	20.3 (≈ 48.1 µM)
CC(C)C(=O)Nc1nnc(-c2ccc3c(c2)OCCO3)o1	52.3 (≈ 181 µM)
O=Nc1c(-c2ccccc2)cc2ccccn12	3.32 (≈ 14.9 µM)
CCOC(=O)C(C)Sc1ncnc2c1cnn2-c1ccc(F)cc1 (stereo not given)	4.73 (≈ 13.7 µM)
COc1cc(OC)cc(C(=O)N(CCCn2ccnc2)c2nc3c(F)cccc3s2)c1	20.6 (≈ 46.8 µM)
Cc1nc2c(ccc3nc(NC(=O)Cc4ccccc4)sc32)s1	2.92 (≈ 8.6 µM)
O=C(c1ccco1)N(CCCn1ccnc1)c1nc2ccccc2s1	4.28 (≈ 12.1 µM)
O=c1[nH]c(N/N=C/c2cccs2)nnc1-c1ccccc1	21.6 (≈ 72.5 µM)
Cc1ccc(C)c(-c2nnc(NC(=O)C3COc4ccccc4O3)o2)c1 (stereo not given)	1.18 (≈ 3.36 µM)
COC(=O)c1ccc(C(=O)NNc2nc3ccc(Cl)cc3s2)cc1	28.9 (≈ 79.8 µM)
COc1ccc(C(=O)N(CCCn2ccnc2)c2nc3c(C)c(C)ccc3s2)cc1OC	14.2 (≈ 31.5 µM)
Cc1ccc(C)c(-c2nnc(NC(=O)COc3ccccc3)o2)c1	2.24 (≈ 6.93 µM)
Clc1ccc(Nc2ccc(NCc3ccccc3)nn2)cc1	5.5 (≈ 17.7 µM)
COc1ccc(-c2nnc3c4cc(OC)ccc4n(Cc4ccccc4F)cc2-3)cc1	9.08 (≈ 22 µM)
Cc1ccc(C)c(N2CCN(C(=O)CCCCCn3c(=O)[nH]c4ccsc4c3=O)CC2)c1	10.9 (≈ 24 µM)
CCCCC(=O)Nc1nnc(-c2ccc3c(c2)CCCC3)o1	3.04 (≈ 10.2 µM)
CCC(=O)Nc1nnc(-c2ccc(Br)cc2)o1	6.26 (≈ 21.1 µM)
CCN1CCc2c(sc(NC(=O)c3sc4ccccc4c3Cl)c2C(N)=O)C1	10.6 (≈ 25.2 µM)
Cc1ccc(Nc2nc(N3CCN(Cc4ccccc4)CC3)nc3nccnc23)cc1	7.94 (≈ 19.3 µM)
